Experimental data from patent publication US20090221624A1, “4-AMINOQUINOLINE COMPOUNDS FOR TREATING VIRUS-RELATED CONDITIONS” (priority 2005, published 2009).

Key:
RSV minigenome = experiment: RSV minigenome-dependent β-galactosidase expression assay (RSV β-Gal); format: cell-based, respiratory syncytial virus; conditions: for EC50 / inhibition at 25 µM: human respiratory syncytial virus; for EC50: Secondary Data, RSV, read-out: RSV EC50; for inhibition at 25 µM: primary screening, 25 μM final concentration, 24 hours, percent inhibition of viral replication, read-out: RSV Inh; for RSV TI: therapeutic index CC50/EC50, RSV
DNG (D2-hRuPac cells) = experiment: DNG antiviral activity, D2-hRuPac cells, Renilla luciferase; format: cell-based, Dengue fever virus; conditions: Dengue virus, secondary screening
YFV (YF-hRuPac cells) = experiment: microbe, parasite or virus in culture; format: cell-based, yellow fever virus; conditions: for inhibition at 25 µM / EC50: Yellow fever virus; for inhibition at 25 µM: 24 h, read-out: YFV Inh; for EC50: read-out: YFV EC50
WNV (WN-hRuPac cells) = experiment: WNV antiviral activity, WN-hRuPac cells, Renilla luciferase; format: cell-based, West Nile virus; conditions: for EC50 / inhibition at 25 µM: West Nile virus; for EC50: Secondary Data, WNV, read-out: WNV EC50; for inhibition at 25 µM: primary screening, 25 μM final concentration, 24 hours, percent inhibition of viral replication, read-out: WNV Inh; for WNV TI: therapeutic index CC50/EC50, WNV
EBOV minigenome = experiment: microbe, parasite or virus in culture; format: cell-based, Ebola virus; conditions: Zaire ebolavirus; for inhibition at 25 µM: 24 h, read-out: EBOV Inh; for EC50: read-out: EBOV EC50
[1] = test system: HCV replicon (Clone A cells, Huh7, subgenomic hepatits C virus RNA); experiment: HCV Neo screening assay (HCV replicon, NPTII ELISA); format: cell-based, hepatitis C virus; conditions: for inhibition at 25 µM / EC50: Hepatitis C virus, Huh-7; for inhibition at 25 µM: primary screening, 25 μM final concentration, 24 hours, percent inhibition of viral replication, read-out: HCV Inh; for EC50: Secondary Data, HCV; for HCV TI: therapeutic index CC50/EC50, HCV
SINV (SR19-F-luc cells) = experiment: SINV antiviral activity, SR19-F-luc cells, Firefly luciferase; format: cell-based; conditions: Sindbis virus; for inhibition at 25 µM: primary screening, 25 μM final concentration, 24 hours, percent inhibition of viral replication, read-out: SINV Inh; for EC50: secondary screening, SR19-F-luc cells

Row | SMILES | EC50 (RSV minigenome) [µM] | inhibition at 25 µM (RSV minigenome) [%] | RSV TI (RSV minigenome) | EC50 (DNG (D2-hRuPac cells)) [µM] | inhibition at 25 µM (YFV (YF-hRuPac cells)) [%] | EC50 (YFV (YF-hRuPac cells)) [µM] | EC50 (WNV (WN-hRuPac cells)) [µM] | inhibition at 25 µM (WNV (WN-hRuPac cells)) [%] | inhibition at 25 µM (EBOV minigenome) [%] | EC50 (EBOV minigenome) [µM] | CC50 (in vitro; DNG CC50) [µM] | CC50 (in vitro; EBOV CC50) [µM] | CC50 (in vitro; HCV CC50) [µM] | CC50 (in vitro; RSV CC50) [µM] | CC50 (in vitro; SINV CC50) [µM] | CC50 (in vitro; WNV CC50) [µM] | CC50 (in vitro; YFV CC50) [µM] | inhibition at 25 µM [1] [%] | inhibition at 25 µM (SINV (SR19-F-luc cells)) [%] | EC50 (SINV (SR19-F-luc cells)) [µM] | other results
1 | CCOC(=O)c1cnc2ccc(OC)cc2c1NCc1ccco1 [Compound 29] | 0.29 | 96.2 | 76.21 | 7.43 | 98.4 | 3.7 | 3.36 | 105 | 86.4 | 8.75 | 22.1 | 22.1 | ≥ 75 | 22.1 | 22.1 | 22.1 | 22.1 | 35.3 | -33.8 | 43 | YFV TI (YFV (YF-hRuPac cells)): 5.97; WNV TI (WNV (WN-hRuPac cells)): 6.58
2 | CCOC(=O)c1cnc2ccccc2c1NCc1ccco1 [Compound 30] | 1.45 | 80.3 | 38.18 | 12 | 92.5 | 5.5 | 4.6 | 93.7 | 71 | 12.6 | 55.4 | 55.4 | ≥ 75 | 55.4 | 55.4 | 55.4 | 55.4 | -18.1 | -9.95 | ≥ 75 | YFV TI (YFV (YF-hRuPac cells)): 10.07; WNV TI (WNV (WN-hRuPac cells)): 12.04
3 | CCOC(=O)c1cnc2ccc(OCC)cc2c1Nc1ccc(I)cc1 [Compound 32] | 3.5 | 48.3 | 21.43 | ≥ 75 | -16.9 | ≥ 75 | ≥ 75 | -2.69 | 31.9 | 75 | ≥ 75 | ≥ 75 | ≥ 75 | ≥ 75 | ≥ 75 | ≥ 75 | ≥ 75 | -11.1 | -17.6 | ≥ 75 | 
4 | CCOC(=O)c1cnc2ccc(OCC)cc2c1Nc1ccccc1CC [Compound 34] | 5.08 | 77.3 | 12.19 | ≥ 75 | 58.5 | 23 | 39.1 | 60.4 | 53.8 | 75 | 61.9 | 61.9 | 35.6 | 61.9 | 61.9 | 61.9 | 61.9 | 78.6 | 34 | ≥ 75 | YFV TI (YFV (YF-hRuPac cells)): 2.69; WNV TI (WNV (WN-hRuPac cells)): 1.58; EC50 [1]: 11.4 µM; HCV TI [1]: 3.12
5 | CCOC(=O)c1cnc2c(C)cc(C)cc2c1NCc1ccco1 [Compound 35] | 1.04 | 89.9 | 35.77 | 11.1 | 98.7 | 3.03 | 2.52 | 104 | 75.2 | 6.64 | 37.2 | 37.2 | 53 | 37.2 | 37.2 | 37.2 | 37.2 | 67.5 | 44.9 | ≥ 75 | YFV TI (YFV (YF-hRuPac cells)): 12.28; WNV TI (WNV (WN-hRuPac cells)): 14.76; EC50 [1]: 8.35 µM; HCV TI [1]: 6.34
